Data from the NIST ThermoML archive (doi:10.1016/j.jct.2013.09.024).

Test: xn = mol fraction of the nth substance listed
Settings: Liquid, Vibrating tube method

CC1(C)C(=O)[C@]2(C)CC[C@H]1C2 [(-)-fenchone] + CCO
mass density [kg/m3]
Settings	283.15 K	298.15 K	313.15 K	328.15 K
101 kPa, x1 = 0.0481	817.48	804.6	791.46	777.95
101 kPa, x1 = 0.0985	834.96	822.02	808.84	795.29
101 kPa, x1 = 0.2002	862.89	849.9	836.65	823.07
101 kPa, x1 = 0.3002	883.74	870.72	857.52	844.02
101 kPa, x1 = 0.4031	900.59	887.59	874.42	861.01
101 kPa, x1 = 0.5012	913.56	900.59	887.46	874.13
101 kPa, x1 = 0.5976	924.09	911.15	898.09	884.87
101 kPa, x1 = 0.697	933.16	920.28	907.3	894.19
101 kPa, x1 = 0.7897	940.31	927.48	914.58	901.6
101 kPa, x1 = 0.899	947.57	934.83	922.06	909.23
101 kPa, x1 = 0.9486	950.46	937.77	925.06	912.33
101 kPa, x1 = 1	953.27	940.67	928.04	915.39
20000 kPa, x1 = 0.051	833.5	822	810.1	798
20000 kPa, x1 = 0.0992	849.7	838	826.1	813.9
20000 kPa, x1 = 0.199	876.6	864.9	852.8	840.6
20000 kPa, x1 = 0.301	897.5	885.7	873.6	861.4
20000 kPa, x1 = 0.3968	913	901.1	889.1	876.8
20000 kPa, x1 = 0.4976	926.2	914.3	902.4	890.1
20000 kPa, x1 = 0.5924	936.5	924.6	912.6	900.5
20000 kPa, x1 = 0.6956	945.8	934	922	910.1
20000 kPa, x1 = 0.7942	953.4	941.6	929.7	917.8
20000 kPa, x1 = 0.8929	959.7	948.1	936.3	924.4
20000 kPa, x1 = 0.9454	962.8	951.2	939.4	927.7
20000 kPa, x1 = 1	965.6	954	942.3	930.8
25000 kPa, x1 = 0.051	837	825.6	814	802.1
25000 kPa, x1 = 0.0992	853.1	841.6	829.9	818
25000 kPa, x1 = 0.199	879.9	868.3	856.5	844.6
25000 kPa, x1 = 0.301	900.6	889.1	877.2	865.3
25000 kPa, x1 = 0.3968	916.1	904.4	892.6	880.6
25000 kPa, x1 = 0.4976	929.2	917.6	905.9	893.7
25000 kPa, x1 = 0.5924	939.4	927.8	916	904.1
25000 kPa, x1 = 0.6956	948.7	937.1	925.3	913.7
25000 kPa, x1 = 0.7942	956.3	944.7	933	921.3
25000 kPa, x1 = 0.8929	962.6	951.1	939.6	927.9
25000 kPa, x1 = 0.9454	965.7	954.2	942.7	931.2
25000 kPa, x1 = 1	968.5	957.1	945.6	934.2
30000 kPa, x1 = 0.051	840.3	829.1	817.7	806.1
30000 kPa, x1 = 0.0992	856.3	845	833.6	821.9
30000 kPa, x1 = 0.199	883	871.7	860	848.3
30000 kPa, x1 = 0.301	903.7	892.3	880.6	869
30000 kPa, x1 = 0.3968	919.1	907.6	895.9	884.2
30000 kPa, x1 = 0.4976	932.2	920.7	909.2	897.3
30000 kPa, x1 = 0.5924	942.3	930.9	919.2	907.7
30000 kPa, x1 = 0.6956	951.6	940.2	928.5	917.2
30000 kPa, x1 = 0.7942	959.1	947.7	936.1	924.8
30000 kPa, x1 = 0.8929	965.5	954.1	942.7	931.4
30000 kPa, x1 = 0.9454	968.5	957.2	945.8	934.5
30000 kPa, x1 = 1	971.3	960	948.7	937.6
35000 kPa, x1 = 0.051	843.4	832.5	821.3	810
35000 kPa, x1 = 0.0992	859.4	848.3	837.1	825.7
35000 kPa, x1 = 0.199	886	874.8	863.5	852
35000 kPa, x1 = 0.301	906.6	895.4	883.9	872.5
35000 kPa, x1 = 0.3968	922	910.6	899.2	887.7
35000 kPa, x1 = 0.4976	935	923.7	912.4	900.8
35000 kPa, x1 = 0.5924	945.2	933.9	922.5	911.1
35000 kPa, x1 = 0.6956	954.4	943.2	931.7	920.6
35000 kPa, x1 = 0.7942	961.9	950.6	939.3	928.1
35000 kPa, x1 = 0.8929	968.2	957	945.8	934.7
35000 kPa, x1 = 0.9454	971.2	960.1	948.9	937.8
35000 kPa, x1 = 1	974	962.9	951.8	940.9
40000 kPa, x1 = 0.051	846.5	835.7	824.8	813.7
40000 kPa, x1 = 0.0992	862.5	851.5	840.5	829.3
40000 kPa, x1 = 0.199	889	877.9	866.8	855.5
40000 kPa, x1 = 0.301	909.5	898.4	887.1	876
40000 kPa, x1 = 0.3968	924.8	913.6	902.4	891.1
40000 kPa, x1 = 0.4976	937.8	926.7	915.5	904.2
40000 kPa, x1 = 0.5924	947.9	936.7	925.5	914.4
40000 kPa, x1 = 0.6956	957.1	946	934.7	923.8
40000 kPa, x1 = 0.7942	964.6	953.5	942.3	931.4
40000 kPa, x1 = 0.8929	970.9	959.8	948.8	937.8
40000 kPa, x1 = 0.9454	973.8	962.9	951.9	941
40000 kPa, x1 = 1	976.6	965.7	954.7	944
